These results are taken from ChEMBL document CHEMBL3112450, “Synthesis and in vitro antitumor evaluation of primary amine substituted quinazoline linked benzimidazole” (Bioorg Med Chem Lett, 2014).

Assay type in all cases: functional
In one assay the test system is T47D. In words: Cytotoxicity against human T47D cells assessed as growth inhibition at 10 uM after 48 hrs by SRB assay. The following applies: read-out: GI.
Assay [1] relates to SW-620. In words: Cytotoxicity against human SW620 cells assessed as cell growth at 10^-4 M after 48 hrs by SRB assay. The following applies: SW-620, 48 h, read-out: Activity. (In general: The SRB assay estimates cell density from bound dye.)
The test system of assay [2] is HT-29. In words: Cytotoxicity against human HT-29 cells assessed as cell growth at 10^-8 M after 48 hrs by SRB assay. As to conditions: HT-29, 48 h, read-out: Activity.
The subject of assay [3] is OVCAR-8. In words: Cytotoxicity against human OVCAR8 cells assessed as cell growth at 10^-7 M after 48 hrs by SRB assay. As to conditions: OVCAR-8, 48 h, read-out: Activity.
A further assay concerns DU-145. In words: Cytotoxicity against human DU145 cells assessed as cell growth at 10^-7 M after 48 hrs by SRB assay. The following applies: DU-145, 48 h, read-out: Activity.
The nature of assay [4]: Cytotoxicity against human NCI-ADR-RES cells assessed as cell growth at 10^-8 M after 48 hrs by SRB assay. As to conditions: read-out: Activity.
The next assay deals with NCI-H226. In words: Cytotoxicity against human NCI-H226 cells assessed as cell growth at 10^-6 M after 48 hrs by SRB assay. As to conditions: NCI-H226, 48 h, read-out: Activity.
Assay [5] has as its system NCI-H522. Nature of the assay: Cytotoxicity against human NCI-H522 cells assessed as cell growth at 10^-4 M after 48 hrs by SRB assay. As to conditions: NCI-H522, 48 h, read-out: Activity.
Assay [6] deals with HCT-15. In words: Cytotoxicity against human HCT15 cells assessed as cell growth at 10^-6 M after 48 hrs by SRB assay. As to conditions: HCT-15, 48 h, read-out: Activity.
The next assay has as its system SF-268. In words: Cytotoxicity against human SF268 cells assessed as cell growth at 10^-4 M after 48 hrs by SRB assay. The following applies: SF-268, 48 h, read-out: Activity.
Assay [7] concerns COLO 205. Nature of the assay: Cytotoxicity against human COLO205 cells assessed as cell growth at 10^-7 M after 48 hrs by SRB assay. The following applies: COLO 205, 48 h, read-out: Activity.
A further assay relates to HOP-62. Nature of the assay: Cytotoxicity against human HOP62 cells assessed as cell growth at 10^-7 M after 48 hrs by SRB assay. The following applies: HOP-62, 48 h, read-out: Activity.
Assay [8] can be described thus: Cytotoxicity against human UO31 cells assessed as cell growth at 10^-4 M after 48 hrs by SRB assay. The following applies: UO-31, 48 h, read-out: Activity.
For another assay, the system named is PC-3. In words: Cytotoxicity against human PC3 cells assessed as cell growth at 10^-6 M after 48 hrs by SRB assay. The following applies: PC-3, 48 h, read-out: Activity.
The subject of another assay is SK-MEL-5. In words: Cytotoxicity against human SK-MEL-5 cells after 48 hrs by SRB assay. The following applies: SK-MEL-5, 48 h.
Another assay concerns UACC-62. In words: Cytotoxicity against human UACC62 cells after 48 hrs by SRB assay. As to conditions: UACC-62, 48 h.
For assay [9], the system named is SW-620. Nature of the assay: Cytotoxicity against human SW620 cells after 48 hrs by SRB assay. As to conditions: SW-620, 48 h.
The next assay concerns RXF 393. Nature of the assay: Cytotoxicity against human RXF393 cells assessed as cell growth at 10^-4 M after 48 hrs by SRB assay. The following applies: RXF 393, 48 h, read-out: Activity.
Assay [10] can be described thus: Cytotoxicity against human Hs578T cells assessed as cell growth at 10^-4 M after 48 hrs by SRB assay. The following applies: Hs-578T, read-out: Activity.
In the next assay the test system is MDA-MB-435. In words: Cytotoxicity against human MDA-MB-435 cells assessed as cell growth at 10^-7 M after 48 hrs by SRB assay. As to conditions: MDA-MB-435, 48 h, read-out: Activity.
For another assay, the system named is SK-MEL-2. Nature of the assay: Cytotoxicity against human SK-MEL-2 cells assessed as cell growth at 10^-6 M after 48 hrs by SRB assay. As to conditions: SK-MEL-2, 48 h, read-out: Activity.
Assay [11] in a line: Cytotoxicity against human NCI-ADR-RES cells assessed as cell growth at 10^-7 M after 48 hrs by SRB assay. The following applies: read-out: Activity.
The test system of assay [12] is NCI-H522. Nature of the assay: Cytotoxicity against human NCI-H522 cells assessed as cell growth at 10^-6 M after 48 hrs by SRB assay. As to conditions: NCI-H522, 48 h, read-out: Activity.
Assay [13] in a line: Cytotoxicity against human OVCAR5 cells assessed as cell growth at 10^-4 M after 48 hrs by SRB assay. The following applies: OVCAR-5, 48 h, read-out: Activity.
Assay [14] deals with OVCAR-8. In words: Cytotoxicity against human OVCAR8 cells assessed as cell growth at 10^-6 M after 48 hrs by SRB assay. The following applies: OVCAR-8, 48 h, read-out: Activity.
Another assay concerns KM12. Nature of the assay: Cytotoxicity against human KM12 cells after 48 hrs by SRB assay. As to conditions: KM12, 48 h.
The subject of a further assay is MDA-MB-468. Nature of the assay: Cytotoxicity against human MDA-MB-468 cells assessed as cell growth at 10^-4 M after 48 hrs by SRB assay. As to conditions: MDA-MB-468, 48 h, read-out: Activity.
For a further assay, the system named is Malme-3M. In words: Cytotoxicity against human MALME-3M cells assessed as cell growth at 10^-4 M after 48 hrs by SRB assay. As to conditions: read-out: Activity.
The subject of assay [15] is COLO 205. In words: Cytotoxicity against human COLO205 cells assessed as cell growth at 10^-6 M after 48 hrs by SRB assay. As to conditions: COLO 205, 48 h, read-out: Activity.
Assay [16] has as its system HT-29. In words: Cytotoxicity against human HT-29 cells assessed as cell growth at 10^-7 M after 48 hrs by SRB assay. As to conditions: HT-29, 48 h, read-out: Activity.
Assay [17] in a line: Cytotoxicity against human UO31 cells assessed as cell growth at 10^-8 M after 48 hrs by SRB assay. As to conditions: UO-31, 48 h, read-out: Activity.
A further assay relates to SNB-19. Nature of the assay: Cytotoxicity against human SNB19 cells assessed as cell growth at 10^-4 M after 48 hrs by SRB assay. The following applies: SNB-19, 48 h, read-out: Activity.
In a further assay the test system is M14. Nature of the assay: Cytotoxicity against human M14 cells assessed as cell growth at 10^-6 M after 48 hrs by SRB assay. As to conditions: M14, 48 h, read-out: Activity.
In the next assay the test system is MDA-MB-231. Nature of the assay: Cytotoxicity against human MDA-MB-231 cells after 48 hrs by SRB assay. The following applies: MDA-MB-231, 48 h.
The test system of assay [18] is HCT-15. In words: Cytotoxicity against human HCT15 cells assessed as cell growth at 10^-8 M after 48 hrs by SRB assay. As to conditions: HCT-15, 48 h, read-out: Activity.
In another assay the test system is MOLT-4. In words: Cytotoxicity against human MOLT4 cells assessed as cell growth at 10^-6 M after 48 hrs by SRB assay. The following applies: MOLT-4, 48 h, read-out: Activity.
Another assay has as its system LOX IMVI. In words: Cytotoxicity against human LOXIMVI cells assessed as cell growth at 10^-8 M after 48 hrs by SRB assay. As to conditions: read-out: Activity.
The subject of a further assay is RPMI-8226. Nature of the assay: Cytotoxicity against human RPMI8226 cells after 48 hrs by SRB assay. The following applies: RPMI-8226, 48 h.
For assay [19], the system named is OVCAR-8. Nature of the assay: Cytotoxicity against human OVCAR8 cells after 48 hrs by SRB assay. The following applies: OVCAR-8, 48 h.

With `C=CCn1c(C)nc2ccc(Nc3nc(Nc4ncccn4)nc4ccccc34)cc21`, in the assay with T47D, the inhibition of growth at 10 µM is 40%.

With `C=CCn1c(C)nc2ccc(Nc3nc(Nc4ccc5nc(C)n(CC=C)c5c4)c4ccccc4n3)cc21`, the growth at 100 µM was -17% in the assay on SW-620 [1]; -15% in the assay with NCI-H522 [5]; -33% in the assay on SF-268; -46% in assay [8]; -31% in the assay on RXF 393; -15% in assay [10]. Besides, the growth at 100 µM in [13] was -75%; with MDA-MB-468 it was -33%; in the assay on Malme-3M, -5%; in the assay on SNB-19, -34%. Further, the growth at 0.01 µM with HT-29 [2] was 102%; in assay [4], 99%; in assay [17] it was 84%; in the assay on HCT-15 [18], 96%; in the assay on LOX IMVI, 91%. The growth at 0.1 µM is 102% in the assay with OVCAR-8 [3]; 100% with DU-145; 101% in the assay on COLO 205 [7]; 96% with HOP-62; 98% in the assay with MDA-MB-435; 95% in assay [11]. The growth at 0.1 µM with HT-29 [16] came out at 101%. Further, the growth at 1 µM amounted to 94% with NCI-H226; 91% in the assay with HCT-15 [6]; 71% in the assay with PC-3; 107% in the assay on SK-MEL-2; 114% in the assay on NCI-H522 [12]; 80% in the assay with OVCAR-8 [14]. Besides, the results for the growth at 1 µM with COLO 205 [15], in the assay with M14 and in the assay on MOLT-4 were 78%, 88% and 73%, respectively. Moreover, the GI50 in the assay on SK-MEL-5 came out at 1650 nM; with UACC-62, 1550 nM; in the assay on SW-620 [9], 1500 nM; with KM12 it was 1640 nM; with MDA-MB-231 it was 1340 nM; with RPMI-8226, 1870 nM. Further, in the assay with OVCAR-8 [19], the GI50 was 1560 nM. For the same compound, the TGI with SK-MEL-5 was found to be 3030 nM; in the assay with UACC-62, 2890 nM; in the assay on SW-620 [9], 2940 nM; in the assay on KM12, 3080 nM; in the assay on MDA-MB-231 it was 2620 nM; in the assay with OVCAR-8 [19] it was 3250 nM. In the assay on UACC-62 (read-out: LC50 (the source's name)), the CC50 worked out at 5380 nM. For the same compound, the LC50 with MDA-MB-231 is 5120 nM; in the assay on RPMI-8226, greater than 100000 nM.

Regarding `C=CCn1c(C)nc2cc(Nc3nc(Nc4ccc5nc(C)n(CC=C)c5c4)c4ccccc4n3)ccc21`, the growth at 100 µM is -8% in the assay on SW-620 [1]; -24% in the assay with NCI-H522 [5]; -82% in the assay with SF-268; -56% in [8]; -31% with RXF 393; -21% in assay [10]. Moreover, the growth at 100 µM was -44% in assay [13], -2% with MDA-MB-468, -42% in the assay with Malme-3M and -35% with SNB-19. Also, the growth at 0.01 µM worked out at 103% with HT-29 [2]; 103% in assay [4]; 85% in assay [17]; 101% in the assay on HCT-15 [18]; 95% with LOX IMVI. In addition, the growth at 0.1 µM came out at 101% in the assay on OVCAR-8 [3]; 99% in the assay on DU-145; 101% in the assay on COLO 205 [7]; 99% with HOP-62; 97% with MDA-MB-435; 100% in [11]. Further, the growth at 0.1 µM in the assay with HT-29 [16] came out at 103%. In addition, the growth at 1 µM with NCI-H226 was 89%; in the assay on HCT-15 [6] it was 12%; with PC-3 it was 1%; in the assay on SK-MEL-2, 74%; with NCI-H522 [12], -83%; in the assay with OVCAR-8 [14], -11%. In addition, the growth at 1 µM was -75% with COLO 205 [15], 72% in the assay on M14 and -23% in the assay with MOLT-4. Moreover, the GI50 amounted to 1590 nM with SK-MEL-5; 1260 nM in the assay on UACC-62; 195 nM with SW-620 [9]; 223 nM in the assay with KM12; 205 nM in the assay on MDA-MB-231; 1240 nM with RPMI-8226. It took 284 nM to inhibit growth with OVCAR-8 [19] by half (GI50). In addition, the TGI in the assay with SK-MEL-5 was determined as 3690 nM; with UACC-62 it was 2590 nM; in the assay on SW-620 [9], 388 nM; with KM12 it was 513 nM; with MDA-MB-231 it was 417 nM; with RPMI-8226, 3930 nM. Also, the LC50 (concentration killing 50% of cells) in the assay with KM12 came to 1460 nM. Moreover, the LC50 in the assay with RPMI-8226 and with OVCAR-8 [19] was greater than 100000 nM each time.

Consider `C=CCn1c(C)nc2cc(Nc3nc(NCCO)nc4ccccc34)ccc21`, for which the inhibition of growth at 10 µM in the assay on T47D amounted to 30%.

For the compound `C=CCn1c(C)nc2ccc(Nc3nc(Sc4ccc(N)cc4)nc4ccccc34)cc21`, the inhibition of growth at 10 µM in the assay with T47D turned out to be 30%.

Usually GI50 stands for the concentration giving 50% growth inhibition. A lower GI50 goes with more potent growth inhibition. For orientation: TGI means the concentration giving total growth inhibition. Lower therefore signals greater sensitivity of the cells. One may read the LC50 as the concentration that kills 50% of the test population.
